Literature values as cited in patent US11964949B2, “Substituted phenyloxazolidinones for antimicrobial therapy” (priority 2015, dated 2024).

System: Mycobacterium tuberculosis, including multidrug-resistant (MDR) and extensively drug resistant (XDR) strains
Settings: M. tuberculosis incl. MDR and XDR strains; cited from earlier work

CC(=O)NC[C@H]1CN(c2ccc(N3CCOCC3)c(F)c2)C(=O)O1 [Linezolid]
minimum inhibitory concentration (MIC): less than 1 ag/ml
